{"source": "patent US12582720B2", "about": "“Compound for preventing or treating lipid metabolism-related diseases” (Fudan University, priority 2020, dated 2026)", "key": {"db/db mice": {"test_system": "db/db mice", "experiment": "Effect of the compound on db/db mouse", "type": "in vivo", "settings": "30 mg/kg ip, 8 mice per group", "excerpt": "Experimental animals: nineteen-week-old db/db male mice (C57BL/6J-Lepr^db/Lepr^db) were obtained from Shanghai Model Organisms Co., Ltd., and acclimatized for at least 1 week before experiments. The mice had ad libitum access to standard chow and water.\nNormal control: The C57BL/6 male mice fed on standard irradiated chow diet (Shuyishuer Inc. cat. no. D12450J) from Changzhou Shuyishuer Biotechnology Co., Ltd. (Shuyishuer Inc.) were used as the normal control.\nMice were randomly divided into 7 groups, wherein 8 mice in each group, and the mice in each group were subjected to intraperitoneal injection to administer: (1) only vehicle (no DMSO) group: 0% DMSO+39% PEG300 (Selleck, cat. no. S6704)+5% Tween-80 (Selleck, cat. no. S6702)+56% distilled water, (2) DMSO group: 1% DMSO+39% PEG300+5% Tween-80+55% H2O (DMSO vehicle), (3) C3 group: Compound 3A was in DMSO vehicle, (4) C4 group: Compound 4A in DMSO vehicle, (5) SIII group: Sudan III DMSO vehicle, (6) GW5074 group: Compound A1 in DMSO vehicle, (7) DP group: Compound A5 in DMSO vehicle. For groups (3)-(7), the compound (30 mg/kg, administration volume 150 μL) was administered through intraperitoneally injection for consecutive 2 weeks, and once a day. The food and water intake were measured with an analytical electronic balance.\nBodyweight was weighed every day.\nIf time permitted, tail vein blood (30-50 μL) was collected every 1-3 days.\n24 hours after the time point of the last injection, end point maxillary surface blood sampling was performed on each mouse. All mice were Euthanized by cervical dislocation, and then tissue sample (e.g., liver samples) were obtained and stored in Eppendorf tubes at −80° C. for assay.\n12 days after initiation of administration, each mouse was scanned by a minispec nuclear magnetic resonance (NMR) instrument (Bruker LF50 II “Minispec” body composition analyzer, Bruker Optics) that was designed for experimental animals, and based on the measurement of solid and liquid parts of the samples, the body fat and lean body weight were determined by this device.\nSerum: Tail vein blood samples (30-50 μL) were left to coagulate in […] blood collection tubes (Jiangsu Kangjian Medical Products Co., Ltd., model KJ002) at room temperature without interference, and then centrifuged at 2,000×g for 10 minutes at 4° C. to remove the clot. Supernatant was collected to obtain the serum.\nLiver: Liver samples were obtained as described in (2). 100 mg of liver tissue was homogenized in 0.9 mL of absolute alcohol under ice-cold conditions, and then centrifuged (2,500 r.p.m/min, 10 min). Supernatant was collected, and then stored at −80° C.\nThe kits were used according to the instruction from manufacturer (TAG: TG kit, cat. no. A110-1-1; TC: T-CHO kit, cat. no. A111-1. FFA: NEFA kit, cat. No. A042-2-1; they were all from Nanjing Jiancheng Bioengineering Institute). TAG, TC and FFA levels in serum and liver samples were determined.\nAccording to the lipidomic method as described above, the contents of liver total lipid, glycerolipid, sterol lipid, neutral sphingolipid and polar lipid were analyzed. The log 2-fold change (log2 FC) and statistical significance (p-value) relative to the DMSO group were calculated."}, "[1]": {"test_system": "lipid droplets in wild type MEF cells", "experiment": "Reduction of OA-induced lipid droplets in wild type MEF cells (BODIPY 493/503 staining)", "type": "cell-based, mouse", "settings": "MEF, unconjugated compound 5 μM", "experimental": "(5) OA-BSA stock solution was prepared into OA-BSA working solution (50× final concentration, 200 μM), and 40 μl of OA-BSA working solution was added to each well to induce lipid droplets. For the non-OA induction group, 40 μl of 10% BSA solution was added to the control well, and the amount of BSA was the same as that of the experimental group.\nCompounds were formulated into DMSO stock solutions. Stock compounds were diluted with DMSO into the indicated concentrations of working solutions prior to use in the treatment of cells. After induction of the lipid droplets with OA for the indicated time, the test compounds were added to the cells respectively. Control wells were replaced with the equal volume of DMSO. Unless otherwise stated, the compounds were diluted into 10× solutions using the culture medium and added to the culture medium for 24 hours of incubation. Cells were treated with compounds in a 37° C. incubator with 5% CO2.\n(3) The original medium in the multi-well plates was removed, washed and the cells was fixed, 1 ml of the BODIPY solution prepared in (1) was added to each well, and stained for 15 minutes. The staining solution was aspirated and washed with 1×PBS.\n(5) The coverslips laid in the multi-well plates were removed, and imaged with the Zeiss 880 confocal microscope after mounted, and analyzed the size and number of lipid droplets with ImageJ.\nWild type MEF cells were cultured in a DMEM culture medium containing 10% FBS. Cells were plated according to the method as described above (12 well plate was plated with aseptic treated slides). When cells grew to a confluence of 60-70%, lipid droplets were induced with OA for 30 h according to the method as described above.\nAt the time point of 6th hour after initiation of induction, the cells were treated (treated for 24 hours) with Compound 1A or Compound 2A (compound concentrations were 50 μM, 15.8 μM, 5 μM, 1.58 μM, 0.5 μM, 0.158 μM) according to the method as described above."}, "[2]": {"test_system": "lipid droplets in human normal liver cell line QSG7701", "experiment": "Endogenous lipid droplets in human normal liver cell line QSG7701", "type": "cell-based", "settings": "QSG7701, no induction, 5 μM, 24 h", "experimental": "10% FBS+90% RPMI 1640 culture medium was used for cultivation, cell incubator culture condition of 37° C. and 5% CO2 was used. Cells were plated as 50 thousands/well (12 well plate was plated with aseptic treated slides). When cells grew to a confluence of 80-90%, the compound (Compound 1A or Compound 2A, at a concentration of 5 μM) was added for treatment, and LC3 binding Compound A1, A5, lipid droplet probe Sudan IV as well as DMSO acted as a control. […]. In the compounds of present disclosure, LC3 binding moiety was covalently linked with lipid droplet binding moiety, and thus could achieve the effect of reducing liver cell endogenous lipid droplet."}, "[3]": {"test_system": "lipid droplets in 3T3-L1 fat precursor cell differentiated fat cells", "experiment": "Lipid droplets in 3T3-L1 fat precursor cell differentiated fat cells", "type": "cell-based, mouse", "settings": "3T3-L1 differentiated fat cells, 5 μM, 24 h"}, "LC3B": {"biological_target": "LC3B (Homo sapiens, UniProt Q9GZQ8)", "experiment": "MST detection of affinity activity with LC3B", "type": "binding", "set-up": "His8 (with TEV site) (N); made in house; host or cells: Escherichia coli BL21(DE3)pLysS", "settings": "MST; read-out: Kd, equilibrium dissociation constant between the LC3 binding compound and LC3B", "method_in_brief": "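Microscale thermophoresis uses recombinant GST-LC3B labelled with RED-NHS fluorophore at 500 nM. Buffer is 20 mM HEPES pH 7.4 with 150 mM NaCl. Readings are taken at 40% infrared laser power and 20% LED power.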"}}}
{"smiles": "O=C1Nc2ccc(I)cc2C1=Cc1cc(Br)c(O)c(Br)c1", "note": "[Compound A1, 3-(3,5-dibromo-4-hydroxylbenzylidene)-5-iodoindolin-2-one, reference compound]", "values": [{"measurement": "mice died in the experiment", "setting": "db/db mice", "value": "One mouse"}, {"measurement": "lipid droplets (number and size)", "setting": "[1]", "value": "did not significantly decrease or become smaller"}, {"measurement": "endogenous lipid droplets (amount)", "setting": "[2]", "value": "no significant effect"}, {"measurement": "amount/size of lipid droplets", "setting": "[3]", "value": "no significant effect"}, {"measurement": "Kd", "setting": "LC3B", "value": 4.76, "unit": "µM"}]}
